The molecules below were run against T1, PDE4D (Homo sapiens, UniProt Q08499) (assay: PDE4 IC50 determination by Scintillation Proximity Assay, PDE4D). Conditions: Table 1B, Formula I compounds; read-out: IC50 PDE4D.
T1 construct: PDE4D: The catalytic domain of human PDE4B from S3 16-V692; His6 (N); thrombin cleavage site (N); made in house; host or cells: E. coli
Type: biochemical
Protocol: (§1) IC50s were determined by Scintillation Proximity Assay (SPA). The principle of the assay is based on the fact that cAMP, the PDE4 substrate, binds weakly to Yittrium Silicate SPA beads, whereas AMP, the product of PDE4 hydrolysis binds strongly. Thus, the extent of PDE4 hydrolysis of a sample of [^3H]cAMP can be measured because only the
(§2) [^3H]AMP produced by PDE4 hydrolysis will bind to the SPA beads and produce a scintillation signal.
(§3) PDE4 enzymes used for IC50 assays were:
(§4) Enzyme was stored in 50% glycerol at −20°.
(§5) In addition to the compound dilutions, each assay plate contained control wells with 1 μl of DMSO (to define 0% enzyme inhibition) or 1 μl of 200 μM roflumilast (to define 100% enzyme inhibition). […] Next, 10 μl of PDE4 enzyme in assay buffer was added and the plates were shaken for 30 s. at 1000 rpm to start the cAMP hydrolysis reaction. The concentrations of enzyme used were: PDE4B, 80 ng/ml; PDE4D, 4 ng/ml; PDE4B2, 2.5 μl of 50% glycerol stock/ml; PDE4D5 0.083 μl of 50% glycerol stock/ml. Assay plates were covered and incubated for 30 min. at 30°. […] The assay plates were covered with clear plastic film, centrifuged for 1 min. at 1000 RPM to settle the SPA beads, and counted using a Wallac TriLux scintillation counter. IC50's were calculated from the raw assay data by non-linear regression curve fitting using the Assay Explorer software package from MDL.

T1 sequence (Q08499 380-756): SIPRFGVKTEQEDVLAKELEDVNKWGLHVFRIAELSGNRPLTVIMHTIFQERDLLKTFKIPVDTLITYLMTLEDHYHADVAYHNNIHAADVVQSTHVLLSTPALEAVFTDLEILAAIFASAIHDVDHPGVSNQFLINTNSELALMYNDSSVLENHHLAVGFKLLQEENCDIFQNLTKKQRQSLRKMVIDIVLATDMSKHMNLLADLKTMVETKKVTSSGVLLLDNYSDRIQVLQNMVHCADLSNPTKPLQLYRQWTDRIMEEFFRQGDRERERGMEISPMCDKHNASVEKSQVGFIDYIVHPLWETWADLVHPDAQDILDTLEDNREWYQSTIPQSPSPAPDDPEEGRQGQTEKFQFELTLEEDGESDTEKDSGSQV

IC50	Molecule
> 10 µM	CC1C2=C(CC(C)(C)CC2=O)Nc2sc(C(N)=O)c(N)c21 (centres unmarked) [Compound 1-4, 3-Amino-4,7,7-trimethyl-5-oxo-4,5,6,7,8,9-hexahydro-thieno[2,3-b]quinoline-2-carboxylic acid amide]
> 10 µM	Cc1cc(=O)[nH]c2sc(C(=O)c3ccc(Cl)c(Cl)c3)c(N)c12 [Compound 1-27, 3-Amino-2-(3,4-dichloro-benzoyl)-4-methyl-7H-thioeno[2,3-b]pyridin-6-one]

Same assay, conditions: first part of Table 2B (2-1 to 2-22); read-out: IC 50 vs. indicated assay PDE4D

IC50	Molecule
> 10 µM	Nc1nc(Nc2ccc(Oc3ccccc3)cc2)sc1C(=O)c1cc(-c2ccccc2)no1 [Compound 2-8, [4-Amino-2-(4-phenoxy-phenylamino)-thiazol-5-yl]-(3-phenyl-isoxazol-5-yl)-methanone]

Same assay, conditions: second part of Table 2B (2-23 to 2-103), column 5; column is PDE4D in first part; read-out: IC 50 vs. indicated assay h TNFα

IC50	Molecule
> 10 µM	Nc1nc(Nc2ccc(Oc3ccccc3)cc2)sc1C(=O)c1ccc(Oc2ccccc2)cc1 [Compound 2-47, [4-Amino-2-(4-phenoxy-phenylamino)-thiazol-5-yl]-(4-phenoxy-phenyl)-methanone]
> 10 µM	Nc1nc(Nc2ccc(Oc3ccccc3)cc2)sc1C(=O)c1ccc(OC(F)F)cc1 [Compound 2-61, [4-Amino-2-(4-phenoxy-phenylamino)-thiazol-5-yl]-(4-difluoromethoxy-phenyl)-methanone]
> 10 µM	COc1cccc(C(=O)c2sc(Nc3cccc(C#N)c3)nc2N)c1 [Compound 2-64, 3-[4-Amino-5-(3-methoxy-benzoyl)-thiazol-2-ylamino]-benzonitrile]

Each molecule was assayed against T2, PDE4B: The catalytic domain of human PDE4B from S152-S528 (Homo sapiens, UniProt Q07343) (assay: PDE4 IC50 determination by Scintillation Proximity Assay, PDE4B). Conditions: Table 1B, Formula I compounds; read-out: IC50 PDE4B.
T2 construct: His6 (N); thrombin cleavage site (N); made in house; host or cells: E. coli
T2 sequence (Q07343 with tags, fused parts or gaps): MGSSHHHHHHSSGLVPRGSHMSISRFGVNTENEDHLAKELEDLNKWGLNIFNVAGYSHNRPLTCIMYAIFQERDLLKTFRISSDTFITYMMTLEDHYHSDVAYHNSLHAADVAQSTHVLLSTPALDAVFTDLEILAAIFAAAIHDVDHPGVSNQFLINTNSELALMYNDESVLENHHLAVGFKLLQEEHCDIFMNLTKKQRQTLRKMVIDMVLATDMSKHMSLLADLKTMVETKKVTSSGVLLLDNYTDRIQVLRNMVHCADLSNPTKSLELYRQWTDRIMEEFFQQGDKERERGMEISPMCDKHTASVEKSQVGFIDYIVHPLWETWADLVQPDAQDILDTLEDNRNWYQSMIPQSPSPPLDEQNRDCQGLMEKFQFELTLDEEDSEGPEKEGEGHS
Type: biochemical
Protocol: as §1, §2, §3, §4, §5

IC50	Molecule
> 10 µM	Cc1cc(=O)[nH]c2sc(C(=O)c3ccc(Br)cc3)c(N)c12 [Compound 1-3, 3-Amino-2-(4-bromo-benzoyl)-4-methyl-7H-thieno[2,3-b]pyridin-6-one]
> 10 µM	CC1C2=C(CC(C)(C)CC2=O)Nc2sc(C(N)=O)c(N)c21 (centres unmarked) [Compound 1-4, 3-Amino-4,7,7-trimethyl-5-oxo-4,5,6,7,8,9-hexahydro-thieno[2,3-b]quinoline-2-carboxylic acid amide]
< 10 µM	CC(=O)C1=C(C)Nc2sc(C(N)=O)c(N)c2C1c1ccc(Cl)cc1 (centres unmarked) [Compound 1-5, 5-Acetyl-3-amino-4-(4-chloro-phenyl)-6-methyl-4,7-dihydro-thieno[2,3-b]pyridine-2-carboxylic acid amide]
> 10 µM	CC(=O)C1=C(C)Nc2sc(C(N)=O)c(N)c2C1c1ccco1 (centres unmarked) [Compound 1-7, 5-Acetyl-3-amino-4-furan-2-yl-6-methyl-4,7-dihydro-thieno[2,3-b]pyridine-2-carboxylic acid amide]
< 10 µM	CCc1ccc(C(=O)c2sc3c(c2N)C(c2cccnc2)C(C(C)=O)=C(C)N3)cc1 (centres unmarked) [Compound 1-8, 1-[3-Amino-2-(4-ethyl-benzoyl)-6-methyl-4-pyridin-3-yl-4,7-dihydro-thieno[2,3-b]pyridin-5-yl]-ethanone]
< 10 µM	CC(=O)C1=C(C)Nc2sc(C(=O)c3cccc([N+](=O)[O-])c3)c(N)c2C1c1cccnc1 (centres unmarked) [Compound 1-9, 1-[3-Amino-6-methyl-2-(3-nitro-benzoyl)-4-pyridin-3-yl-4,7-dihydro-thieno[2,3-b]pyridin-5-yl]-ethanone]
> 10 µM	NC(=O)c1sc2[nH]c(=O)c(C(=O)O)cc2c1N [Compound 1-10, 3-Amino-2-carbamoyl-6-oxo-6,7-diliydro-thieno[2,3-b]pyridine-5-carboxylic acid]
> 10 µM	Cc1ccc(C2CC(=O)Nc3sc(C(N)=O)c(N)c32)cc1 (centres unmarked) [Compound 1-11, 3-Amino-6-oxo-4-p-tolyl-4,5,6,7-tetrahydro-thieno[2,3-b]pyridine-2-carboxylic acid amide]
< 10 µM	CCNc1sc(C(=O)OC)c(N)c1C#N [Compound 1-13, 3-Amino-4-cyano-5-ethylamino-thiophene-2-carboxylic acid methyl ester]
< 10 µM	NC(=O)c1sc(Nc2ccccc2)c(-c2nc3ccccc3[nH]2)c1N [Compound 1-14, 3-Amino-4-(1H-benzoimidazol-2-yl)-5-phenylamino-thiophene-2-carboxylic acid amide]
< 10 µM	COc1ccc(C(=O)c2sc(Nc3ccc(Oc4ccccc4)cc3)c(C#N)c2N)cc1 [Compound 1-174]
< 10 µM	N#Cc1c(NC2CCCC2)sc(C(=O)c2cc(C(=O)N3CCOCC3)no2)c1N [Compound 1-175, 4-Amino-2-cyclopentylamino-5-[3-(morpholine-4-carbonyl)-isoxazole-5-carbonyl]-thiophene-3-carbonitrile]
< 10 µM	N#Cc1c(NC2CCCC2)sc(C(=O)c2ccc(-c3ccccc3)cc2)c1N [Compound 1-188, 4-Amino-5-(biphenyl-4-carbonyl)-2-cyclopentylamino-thiophene-3-carbonitrile]
< 10 µM	N#Cc1c(Nc2ccccc2Cl)sc(C(=O)c2ccc(Oc3ccccc3)cc2)c1N [Compound 1-194, 4-Amino-2-(2-chloro-phenylamino)-5-(4-phenoxy-benzoyl)-thiophene-3-carbonitrile]

Molecule	IC50
3-Amino-2-(4-ethyl- phenylcarbamoyl)-6-oxo- 6,7-dihydro- thieno[2.3-b]pyridine- 5-carboxylic acid [Compound 1-6]	> 10 µM

Same assay, conditions: Table 3A, Formula III compounds; read-out: IC50 PDE4B

IC50	Molecule
< 10 µM	CSc1nccc(-c2ccc(S(=O)(=O)Nc3ccc(Br)c4cccnc34)s2)n1 [Compound 3-17, 5-(2-Methylsulfanyl-pyrimidin-4-yl)-thiophene-2-sulfonic acid (5-bromo-quinolin-8-yl)-amide]
< 10 µM	COc1ccc(NS(=O)(=O)c2ccc(-c3ccnc(SC)n3)s2)c2ncccc12 [Compound 3-18, 5-(2-Methylsulfanyl-pyrimidin-4-yl)-thiophene-2-sulfonic acid (5-methoxy-quinolin-8-yl)-amide]
< 10 µM	CSc1ncc(-c2ccc(S(=O)(=O)N(C)c3cccc4cccnc34)s2)cn1 [Compound 3-19, 5-(2-Methylsulfanyl-pyrimidin-5-yl)-thiophene-2-sulfonic acid methyl-quinolin-8-yl-amide]
< 10 µM	O=S(=O)(Nc1ccc(Br)c2cccnc12)c1ccc(-c2cnco2)s1 [Compound 3-35, 5-Oxazol-5-yl-thiophene-2-sulfonic acid (5-bromo-quinolin-8-yl)-amide]
< 10 µM	COc1ccc(NS(=O)(=O)c2ccc(-c3cnco3)s2)c2ncccc12 [Compound 3-36, 5-Oxazol-5-yl-thiophene-2-sulfonic acid (5-methoxy-quinolin-8-yl)-amide]
> 10 µM	COc1cc(NS(=O)(=O)c2c(Cl)cccc2Cl)c2ncccc2c1 [Compound 3-50, 2,6-Dichloro-N-(6-methoxy-quinolin-8-yl)-benzenesulfonamide]
> 10 µM	O=S(=O)(Nc1cc(Br)cc2cccnc12)c1ccccc1 [Compound 3-59, N-(6-Bromo-quinolin-8-yl)-benzenesulfonamide]
> 10 µM	COc1ccc(Br)cc1S(=O)(=O)Nc1cccc2cccnc12 [Compound 3-60, 5-Bromo-2-methoxy-N-quinolin-8-yl-benzenesulfonamide]
< 10 µM	O=S(=O)(Nc1cccc2cccnc12)c1cccc(Nc2ccncn2)c1 [Compound 3-61, 3-(Pyrimidin-4-ylamino)-N-quinolin-8-yl-benzenesulfonamide]
< 10 µM	CSc1nc(Nc2ccc(S(=O)(=O)Nc3cccc4cccnc34)cc2)c2ccccc2n1 [Compound 3-62, 4-(2-Methylsulfanyl-quinazolin-4-ylamino)-N-quinolin-8-yl-benzenesulfonamide]
< 10 µM	CSc1nc(Nc2cccc(S(=O)(=O)Nc3cccc4cccnc34)c2)c2ccccc2n1 [Compound 3-63, 3-(2-Methylsulfanyl-quinazolin-4-ylamino)-N-quinolin-8-yl-benzenesulfonamide]
< 10 µM	O=C(c1ccncc1)c1ccc(S(=O)(=O)Nc2cccc3cccnc23)cc1 [Compound 3-64, 4-(Pyridine-4-carbonyl)-N-quinolin-8-yl-benzenesulfonamide]
< 10 µM	O=S(=O)(Nc1cccc2cccnc12)c1ccc(N2CCOCC2)cc1 [Compound 3-65, 4-Morpholin-4-yl-N-quinolin-8-yl-benzenesulfonamide]
> 10 µM	Cc1nccc(-c2cccc(S(=O)(=O)Nc3ccc(Br)c4cccnc34)c2)n1 [Compound 3-67, N-(5-Bromo-quinolin-8-yl)-3-(2-methyl-pyrimidin-4-yl)-benzenesulfonamide]
< 10 µM	COc1ccc(NS(=O)(=O)c2cccc(-c3ccnc(C)n3)c2)c2ncccc12 [Compound 3-68, N-(5-Methoxy-quinolin-8-yl)-3-(2-methyl-pyrimidin-4-yl)-benzenesulfonamide]
> 10 µM	O=S(=O)(Nc1cccc2cccnc12)c1ccc(Oc2ccccc2)nc1 [Compound 3-69, 6-Phenoxy-pyridine-3-sulfonic acid quinolin-8-ylamide]

Same assay, conditions: second part of Table 2B (2-23 to 2-103), column 3; column is PDE4B in first part; read-out: IC 50 vs. indicated assay h TNFα

IC50	Molecule
< 10 µM	Nc1nc(Nc2c(F)cccc2F)sc1C(=O)c1ccccc1 [Compound 2-44, [4-Amino-2-(2,6-difluoro-phenylamino)-thiazol-5-yl]-phenyl-methanone]
